Source: ChEMBL document CHEMBL5233276, “Cathepsin C inhibitors as anti-inflammatory drug discovery: Challenges and opportunities” (Eur J Med Chem, 2021)
Each block holds one compound with its values, some of them ahead of it. Where a SMILES comes first, the peptide text is derived from it. The star is where a group is joined. CHN2 = [N-]=[N+]=C*

How the values were obtained:
Dipeptidyl peptidase 1 [1] = target: T1, Dipeptidyl peptidase 1 (Homo sapiens, UniProt P53634); assay: Inhibition of human Cathepsin C using Z-Arg-Arg-AM as substrate at 3 microM relative to control
T1 sequence (P53634 25-134 limits assumed): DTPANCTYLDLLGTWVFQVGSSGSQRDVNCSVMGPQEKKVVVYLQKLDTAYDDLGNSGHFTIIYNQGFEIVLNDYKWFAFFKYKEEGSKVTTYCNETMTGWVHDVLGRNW
T1 sequence (P53634 231-394 limits assumed): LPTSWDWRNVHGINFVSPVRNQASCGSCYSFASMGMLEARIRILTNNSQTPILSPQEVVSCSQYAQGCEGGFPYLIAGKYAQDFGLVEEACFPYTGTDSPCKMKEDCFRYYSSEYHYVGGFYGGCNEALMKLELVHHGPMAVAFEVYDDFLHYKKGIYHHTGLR
T1 sequence (P53634 395-463 limits assumed): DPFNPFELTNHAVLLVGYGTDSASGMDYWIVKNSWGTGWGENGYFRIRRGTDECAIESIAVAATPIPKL

Dipeptidyl peptidase 1 [2] = target: T1, Dipeptidyl peptidase 1; assay: Inhibition of human Cathepsin C using Gly-Phe-AMC as substrate assessed as kobs/[I]
Dipeptidyl peptidase 1 [3] = target: T1, Dipeptidyl peptidase 1; assay: Inhibition of human Cathepsin C using Gly- L -Phe-p-nitroanilide.HCl as substrate
Dipeptidyl peptidase 1 [4] = target: T1, Dipeptidyl peptidase 1; assay: Inhibition of human Cathepsin C using Gly-Phe-paranitroanilide as substrate incubated for 12 mins
Mus musculus = assay: Inhibition of Cathepsin C in mouse spleen measured at 5 mg/kg ip, relative to control; type: organism-based
Dipeptidyl peptidase 1 [5] = target: T1, Dipeptidyl peptidase 1; assay: Inhibition of human Cathepsin C using Ala-4-[ 125 I]Phe-DMK as substrate preincubated for 30 mins followed by substrate addition measured after 6 to 24 hrs
Dipeptidyl peptidase 1 [6] = target: T1, Dipeptidyl peptidase 1; assay: Inhibition of Cathepsin C (unknown origin)

SMILES: CC(C)CC(NC(=O)CN)P(=O)(O)CCC(=O)O (stereo unspecified)
IC50 (Dipeptidyl peptidase 1 [3]): 39000 nM

SMILES: CC[C@H](N)C(=O)N[C@]1(C#N)C[C@@H]1c1ccc(-c2ccc(S(=O)(=O)N3CCN(C)CC3)cc2)cc1
IC50 (Dipeptidyl peptidase 1 [4]): 15 nM

SMILES: C=CC(=O)Nc1cc2c(Nc3ccc(F)c(Cl)c3)ncnc2cc1OCCCN1CCOCC1 [CANERTINIB]
IC50 (Dipeptidyl peptidase 1 [6]): 120 nM

SMILES: CC[C@@H](/C=C/C(=O)N1CCc2ccccc21)NC(=O)C1(N)CCOCC1
IC50 (Dipeptidyl peptidase 1 [6]): 1 nM

More lines, main results first:

ID50 (Dipeptidyl peptidase 1 [1]): 100 nM
Ratio (Dipeptidyl peptidase 1 [2]): 2 10^6/M/s
SMILES: C[C@H](N)C(=O)N[C@H](/C=C/S(=O)(=O)c1ccccc1)CCc1ccccc1

IC50 (Dipeptidyl peptidase 1 [1]): 4900 nM
Ratio (Dipeptidyl peptidase 1 [2]): 2900 M⁻¹ s⁻¹
SMILES: C[C@@H](O)[C@H](N)C(=O)N[C@@H](/C=C/S(C)(=O)=O)CCC(=O)O

inhibition (Dipeptidyl peptidase 1 [1]): > 90%
SMILES: [N-]=[N+]=CC(=O)[C@H](Cc1ccccc1)NC(=O)CN (H-Gly-Phe-CHN2)
inhibition (Mus musculus): > 90%

IC50 (Dipeptidyl peptidase 1 [5]): 50 nM
SMILES: N#[N+][CH-]C(=O)[C@H](Cc1ccccc1)NC(=O)CN
